Marks after values point to notes of the source that are not given here.

Format in all cases: in vivo
The test system of assay [1] is Puccinia recondita f. sp. tritici (the causal agent of wheat leaf rust). As to the kind of experiment: Test B: preventive spray on wheat seedlings, disease rating (100 = 100% control; * 50 ppm, ** 10 ppm, *** 250 ppm). Particulars: 100 = 100% disease control. Summed up:
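Wheat seedlings sprayed to run-off with compound in acetone/water (50/50) containing 250 ppm PEG400, inoculated next day with Puccinia recondita f. sp. tritici spores. Held 24 h saturated at 20° C, then 6 days at 20° C; disease control rated 0–100 relative to controls.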

In assay [2] the test system is Phakopsora pachyrhizi (the causal agent of Asian soybean rust). As to the kind of experiment: Test A: preventive spray on soybean seedlings, visual disease rating (100 = 100% control; * 50 ppm, ** 10 ppm, *** 250 ppm). Particulars: 100 = 100% disease control. Summed up: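 Soybean seedlings sprayed to run-off with compound suspended in acetone/water with 250 ppm PEG400 surfactant, inoculated next day with P. pachyrhizi spores. Kept 24 h saturated at 22 °C, then 8 days at 22 °C before visual rating of disease control (0-100) relative to controls.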

Assay [3] deals with Uncinula necator (the causal agent of grape powdery mildew). Briefly: Test C: preventive spray on grape seedlings, disease rating (100 = 100% control; * 50 ppm, ** 10 ppm, *** 250 ppm). Particulars: 100 = 100% disease control. From the text: (§1) General protocol for preparing test suspensions for Tests A-E: the test compounds were first dissolved in acetone in an amount equal to 3% of the final volume and then suspended at the desired concentration (in ppm) in acetone and purified water (50/50 mix by volume) containing 250 ppm of the surfactant […] (polyhydric alcohol esters). The resulting test suspensions were then used in Tests A-E.
The test solution was sprayed to the point of run-off on grape seedlings. The following day the seedlings were inoculated with a spore suspension of Uncinula necator (the causal agent of grape powdery mildew) and incubated in a growth chamber at 20° C. for 12 days, after which time disease ratings were made.
(§2) Results for Tests A-E are given in Table A. In the Table, a rating of 100 indicates 100% disease control and a rating of 0 indicates no disease control (relative to the controls). An asterisk “*” or a double asterisk “**” or a triple asterisk “***” next to the rating value indicates a 50 ppm, 10 ppm and 250 ppm test suspension was used, respectively. A dash (-) indicates the compound was not tested.

Assay [4] concerns Blumeria graminis f. sp. tritici (the causal agent of wheat powdery mildew). Briefly: Test E: preventive spray on wheat seedlings, visual disease rating (100 = 100% control; * 50 ppm, ** 10 ppm, *** 250 ppm). Particulars: 100 = 100% disease control; for pest or weed control at 250 ppm / Test E disease control rating: 250 ppm test suspension.
Description: as §1
The test suspension was sprayed to the point of run-off on wheat seedlings. The following day the seedlings were inoculated with a spore dust of Blumeria graminis f. sp. tritici, (also known as Erysiphe graminis f. sp. tritici, the causal agent of wheat powdery mildew) and incubated in a growth chamber at 20° C. for 8 days, after which time visual disease ratings were made.
as §2

The test system of assay [5] is Zymoseptoria tritici (the causal agent of wheat leaf blotch). As to the kind of experiment: Test D: preventive spray on wheat seedlings, disease rating (100 = 100% control; * 50 ppm, ** 10 ppm, *** 250 ppm). Particulars: 100 = 100% disease control.
Description: as §1
The test solution was sprayed to the point of run-off on wheat seedlings. The following day the seedlings were inoculated with a spore suspension of Zymoseptoria tritici (the causal agent of wheat leaf blotch) and incubated in a saturated atmosphere at 24° C. for 48 h, and then moved to a growth chamber at 20° C. for 17 days, after which time disease ratings were made.
as §2

Assay [6] deals with Phakopsora pachyrhizi (the causal agent of Asian soybean rust). Briefly: Test F: Compound 32 or 64 alone and in mixtures on soybean seedlings, observed (Obsd) and Colby expected (Exp) disease control. Particulars: Phakopsora pachyrhizi; for pest or weed control at 0.303 ppm: Compound 64 0.303 ppm alone; for pest or weed control at 0.489 ppm: Compound 64 0.489 ppm alone. From the text: The general protocol for preparing test compositions for Test F was as follows: Compound 32, Compound 64, azoxystrobin, benzovindiflupyr, bixafen, chlorothalonil, cyproconazole, epoxiconazole, fenpropidin, fenpropimorph, fluindapyr, flutriafol, fluxapyroxad, metominostrobin, picoxystrobin, prothioconazole, pydiflumetofen, pyraclostrobin, tebuconazole and trifloxystrobin were obtained as unformulated, technical-grade materials. Copper hydroxide and mancozeb was obtained as a formulated product marketed under the trademarks KOCIDE 3000 and MANZATE, respectively. Unformulated materials were first dissolved in acetone and then suspended at the desired concentration (in ppm) in acetone and purified water (50/50 mix by volume) containing 250 ppm of the surfactant Trem® 014 (polyhydric alcohol esters). Formulated materials were dispersed in sufficient water to give the desired concentration, and neither organic solvent nor surfactant was added to the suspension. The resulting test mixtures were then used in Test F. The tests were run on four individual plants and the results reported as the mean average of the four plants.
The presence of a synergistic effect between two active ingredients was established with the aid of the Colby equation (see Colby, S. R. “Calculating Synergistic and Antagonistic Responses of Herbicide Combinations”, Weeds, (1967), 15, 20-22):
Using the method of Colby, the presence of a synergistic interaction between two active ingredients is established by first calculating the predicted activity, p, of the mixture based on activities of the two components applied alone. If p is lower than the experimentally established effect, synergism has occurred. In the equation above, A is the fungicidal activity in percentage control of one component applied alone at rate x. The B term is the fungicidal activity in percentage control of the second component applied at rate y. The equation estimates p, the expected fungicidal activity of the mixture of A at rate x with B at rate y if their effects are strictly additive and no interaction has occurred.
The test mixture was sprayed to the point of run-off on soybean seedlings. The following day the seedlings were inoculated with a spore suspension of Phakopsora pachyrhizi (the causal agent of Asian soybean rust) and incubated in a saturated atmosphere at 22° C. for 24 h and then moved to a growth chamber at 22° C. for 8 days, after which time visual disease ratings were made.
Results for Test F are given in Tables B-1 through I-1 for Compound 32 and Tables B-2 through I-2 for Compound 64. Each table corresponds to a set of evaluations performed together at the same time. In each table, a rating of 100 indicates 100% disease control and a rating of 0 indicates no disease control (relative to the controls). Columns labeled “Obsd” indicate the average of results observed from test run on four individual plants. Columns labeled “Exp” indicate the expected value for each treatment mixture using the Colby equation.

Setting [7] is: Puccinia recondita, 10 ppm test suspension, 0 = no control.
[8] abbreviates: Puccinia recondita, 50 ppm test suspension, 0 = no control.
Where [9] appears, read: Erysiphe necator, 50 ppm test suspension, 0 = no control.
Where [10] appears, read: 50 ppm test suspension, 0 = no control.
The mark [11] stands for this setting: 250 ppm test suspension, 0 = no control.
Setting [12] is: Blumeria graminis, wheat seedlings.
[13] abbreviates: Zymoseptoria tritici, 250 ppm test suspension, wheat seedlings.

The pest or weed control is the degree to which the test organism was suppressed or injured, in per cent. Turning to `CCOC(=O)c1cnn(COc2ccc(O/C=C(\OCC)C(F)(F)F)c(F)c2)c1` [compound 454], the pest or weed control at 10 ppm in assay [1] (setting [7]) was 0%; in assay [2] (Phakopsora pachyrhizi, 10 ppm test suspension, 0 = no control) it was 100%; in assay [3] (Erysiphe necator, 10 ppm test suspension, 0 = no control) it was 100%.
As for `CCOC(=O)c1cnn(COc2ccc(O/C=C(\OCC)C(F)(F)F)cc2)c1` [Compound 364, ethyl 1-[[4-[[(1Z)-2-ethoxy-3,3,3-trifluoro-1-propen-1-yl]oxy]phenoxy]methyl]-1H-pyrazole-4-carboxylate], the pest or weed control at 50 ppm in assay [1] (setting [8]) worked out at 0%; in assay [4] (Blumeria graminis, 50 ppm test suspension, 0 = no control) it was 56%; in assay [3] (setting [9]) it was 100%; in assay [5] (Zymoseptoria tritici, 50 ppm test suspension, 0 = no control) it was 0%.
`CCOC(=O)c1cnn(Cc2ccc(OCC3(C(F)(F)F)OCCO3)s2)c1` [compound 273] yielded a pest or weed control at 50 ppm in assay [1] (setting [8]) of 0%. The pest or weed control at 250 ppm came out at 65% in assay [4] (Blumeria graminis, 0 = no control); 49% in assay [3] (Erysiphe necator, 250 ppm test suspension, 0 = no control); 20% in assay [5] (Zymoseptoria tritici, 250 ppm test suspension, 0 = no control).
For `CCOC(=O)c1cnn(Cc2cccc(O/C=C(\OCC)C(F)(F)F)c2F)c1` [compound 301], in assay [1] (setting [10]), the “Test B disease control rating” value is reported as 0%. In assay [2] (setting [10]), the “Test A disease control rating” value is listed as 100%. In assay [3] (setting [10]), the “Test C disease control rating” value is reported as 100* %.
Regarding `CCO/C(=C\Oc1ccc(Cn2cc(C(=O)NCC(F)F)cn2)cc1)C(F)(F)F` [compound 436], the “Test B disease control rating” value in assay [1] (setting [10]) is on record as 0%. Further, the “Test A disease control rating” value in assay [2] (setting [10]) stood at 99%. In addition, the “Test E disease control rating” value in assay [4] (0 = no control) was 0*** %. Further, the “Test C disease control rating” value in assay [3] (setting [11]) is on record as 48*** %.
For `CCCCOC(=O)c1cnn(Cc2ccc(O/C=C(\OCC)C(F)(F)F)cc2)c1` [Compound 218, butyl 1-[[4-[[(1Z)-2-ethoxy-3,3,3-trifluoro-1-propen-1-yl]oxy]phenyl]methyl]-1H-pyrazole-4-carboxylate], the pest or weed control at 10 ppm in assay [1] (Puccinia recondita, 10 ppm test suspension, wheat seedlings) was 0%. Also, the pest or weed control at 250 ppm in assay [4] (setting [12]) was 90%; in assay [3] (Erysiphe necator, 250 ppm test suspension, grape seedlings), 75%; in assay [5] (setting [13]) it was 53%.
`COC(COc1ccc(Cn2cc(Br)cn2)cc1)(O[Si](C)(C)C)C(F)(F)F` (stereo not drawn) [compound 395]: the pest or weed control at 50 ppm came to 100% in assay [1] (setting [8]); 100% in assay [2] (Phakopsora pachyrhizi, 50 ppm test suspension, 0 = no control); 100% in assay [3] (setting [9]).
With `CCOC(=O)c1cnn(Cc2ccc(O/C=C(\OCC)C(F)(F)F)cc2)c1` [Compound 64, ethyl 1-[[4-[[(1Z)-2-ethoxy-3,3,3-trifluoro-1-propen-1-yl]oxy]phenyl]methyl]-1H-pyrazole-4-carboxylate], the pest or weed control at 250 ppm in assay [1] (Puccinia recondita, 250 ppm test suspension, wheat seedlings) was 99%; in assay [4] (setting [12]), 99%; in assay [5] (setting [13]), 73%. For the same compound, the pest or weed control at 0.303 ppm in assay [6] (Table B-2) is 53%; in assay [6] (Table C-2), 34%; in assay [6] (Table D-2), 49%; in assay [6] (Table E-2) it was 78%; in assay [6] (Table F-2), 37%; in assay [6] (Table G-2), 52%. Also, the pest or weed control at 0.303 ppm in assay [6] (Table H-2) and in assay [6] (Table I-2) was 50% throughout. Further, the pest or weed control at 0.489 ppm in assay [6] (Table B-2) was 68%; in assay [6] (Table C-2), 63%; in assay [6] (Table D-2), 63%; in assay [6] (Table E-2), 77%; in assay [6] (Table F-2), 68%; in assay [6] (Table G-2), 50%. The values for the pest or weed control at 0.489 ppm in assay [6] (Table H-2) and in assay [6] (Table I-2) were 70% and 81%, respectively.
Regarding `CCOC(=O)c1cnn(Cc2ccc(OCC(O)(O)C(F)(F)F)c(F)c2F)c1` [Compound 431], the “Test E disease control rating” value in assay [4] (0 = no control) was 96%. Further, the “Test C disease control rating” value in assay [3] (setting [11]) was found to be 36%. Besides, the “Test D disease control rating” value in assay [5] (setting [11]) is given as 93%.
In the case of `O=C(COC(=O)c1cnn(Cc2ccc(OCC3(C(F)(F)F)OCCO3)cc2)c1)c1ccccc1` [compound 170], in assay [1] (10 ppm test suspension, wheat seedlings), the “Test B disease control rating” value was 0%. Further, the “Test A disease control rating” value in assay [2] (10 ppm test suspension, soybean seedlings) turned out to be 100%. In addition, the “Test C disease control rating” value in assay [3] (50 ppm test suspension, grape seedlings) is reported as 100* %.
In turn, `CCOC(=O)c1cnn(Cc2ccc(OCC3(C(F)(F)F)OCCO3)c(F)c2)c1` [Compound 263, ethyl 1-[[3-fluoro-4-[[2-(trifluoromethyl)-1,3-dioxolan-2-yl]methoxy]phenyl]methyl]-1H-pyrazole-4-carboxylate] came in with a pest or weed control at 10 ppm in assay [1] (setting [7]) of 0%. The compound also had a pest or weed control at 50 ppm in assay [3] (setting [9]) of 100%.
As for `CCOC(=O)c1cnn(Cc2cccc(O/C=C(\OCC)C(F)(F)F)c2)c1` [Compound 265, ethyl 1-[[3-[[(1Z)-2-ethoxy-3,3,3-trifluoro-1-propen-1-yl]oxy]phenyl]methyl]-1H-pyrazole-4-carboxylate], the pest or weed control at 50 ppm in assay [1] (setting [8]) came to 0%; in assay [3] (setting [9]), 98%.

The values are drawn from patent US20240122180A1, “FUNGICIDAL HALOMETHYL KETONES AND HYDRATES AND THEIR MIXTURES” (FMC Corporation, priority 2020, published 2024).
